Tested on: B. cepacia (ATCC 25416)
Assay: Minimum Effective Concentration (MEC) Test Method
Assay type: cell-based, Burkholderia cepacia
Conditions: for MEC of antimicrobial agent Hydroxyacetophenone (SymSave H) / MEC of antimicrobial agent Lactic Acid (Purac FCC 88) / MEC of antimicrobial agent Caprylhydroxamic Acid (Zeastat) / MEC of antimicrobial agent Sodium Benzoate: B. cepacia, 24 hours; for performance as antimicrobial boosting agent: summary in words of the MEC testing of Table 1
Experimental: Initial testing was conducted to screen a variety of surfactants in researching for potential antimicrobial boosting agents. The initial testing followed the methodology as described in the Minimum Effective Concentration (“MEC”) Test Method described in the Test Methods section herein. To summarize, the MEC testing paired a variety of potential antimicrobial boosting agents with a variety of known antimicrobial agents to determine the MEC of the respective antimicrobial agent that must be used to provide an effective antimicrobial result, as described in further detail in the Test Methods section. The more positive the boosting characteristics of an antimicrobial boosting agent, then the lower the MEC that would be required for the paired antimicrobial agent. It is to be noted that the molarities listed in Table 1 are approximate values that were calculated based on the estimated activities of the ingredients and the molecular weights of the active ingredients. In instances where an exact activity was not available for an ingredient blend, the ingredient blend activity was estimated as the average of the upper and lower limits of the specification provided by the manufacturer of such blend. In instances where an exact molecular weight could not be calculated (for example, in compounds derived from a natural oil like coconut oil), the molecular weight of the active was estimated based on a weighted average of the molecular weights of the constituent species.
The Minimum Effective Concentration Test Method discussed herein began by adding B. cepacia (ATCC 25416) culture at a final concentration of approximately 5×10^6 CFU/mL to the composition to be challenged. The challenged composition was then allowed to incubate at room temperature for 24 hours. After 24 hours, a preservative neutralizing broth was added to the mixture and measurements were subsequently taken to determine the concentration of B. cepacia still remaining after exposure to the test composition.
The Minimum Effective Concentration was determined by completing the process described above on a series of compositions with the same concentration of antimicrobial boosting agent, but with different concentrations of antimicrobial agent. The Minimum Effective Concentration of antimicrobial agent for any given value of antimicrobial boosting agent was defined as the minimum concentration of antimicrobial agent required to reduce the concentration of B. cepacia to a level below the detection threshold for the test method, which was approximately 100 CFU/mL. In instances where multiple rounds of Minimum Effective Concentration testing were completed, the value reported is the mean of the Minimum Effective Concentration values generated by each individual series of tests.

[1] = paired with the labelled potential boosting agent at 5 mmol/L
[2] = no antimicrobial boosting agent

Row | Molecule | MEC of antimicrobial agent Lactic Acid (Purac FCC 88) [1] | performance as antimicrobial boosting agent | further results
1 | Cocamide DIPA [Cola Liquid DC] | Unstable | did not perform well as antimicrobial boosting agents | MEC of antimicrobial agent Hydroxyacetophenone (SymSave H) [1]: 20 mmol/L
2 | Polysorbate 20 [Eumulgin SML-20] | 50 mmol/L | did not perform well as antimicrobial boosting agents | MEC of antimicrobial agent Caprylhydroxamic Acid (Zeastat) [1]: 10 mmol/L; MEC of antimicrobial agent Hydroxyacetophenone (SymSave H) [1]: >20 mmol/L; MEC of antimicrobial agent Sodium Benzoate [1]: 5 mmol/L
3 | sodium cocoamphoacetate |  | provided at least some antimicrobial boosting effect | 
4 | CCCCCCCCCCCCCCCC[N+](C)(C)CC(=O)[O-] [Mackam CET, Cetyl Betaine] | 40 mmol/L |  | 
5 | CCCCCCCC[N+](C)(C)CC(=O)[O-] [Mackam BW-139, Octyl Betaine] | 40 mmol/L |  | 
6 | CC(O)C(=O)O (centres unmarked) [Purac FCC 88, Lactic Acid] |  |  | MEC of antimicrobial agent Lactic Acid (Purac FCC 88) [2]: 60 mmol/L
7 | CCCCCCCC(=O)NO [Zeastat, Caprylhydroxamic Acid] |  |  | MEC of antimicrobial agent Caprylhydroxamic Acid (Zeastat) [2]: 10 mmol/L
8 | Disodium Cocoamphodiacetate [Mackam 2C-75] | 30 mmol/L | provided at least some antimicrobial boosting effect | MEC of antimicrobial agent Caprylhydroxamic Acid (Zeastat) [1]: 4 mmol/L; MEC of antimicrobial agent Hydroxyacetophenone (SymSave H) [1]: 10 mmol/L; MEC of antimicrobial agent Sodium Benzoate [1]: 2.5 mmol/L
9 | Sodium Cocoamphoacetate [ColaTeric 1C] | 30 mmol/L |  | MEC of antimicrobial agent Hydroxyacetophenone (SymSave H) [1]: 15 mmol/L
10 | Sodium Cocoyl Isethionate [Hostapon SCI 85 P] | 50 mmol/L | did not perform well as antimicrobial boosting agents | 
11 | Disodium Capryloamphodiacetate [Sopalteric DSCYA-27] | 30 mmol/L | provided at least some antimicrobial boosting effect | 
12 | Coco-Glucoside [Plantacare 818 UP] | >60 mmol/L | did not perform well as antimicrobial boosting agents | 
13 | CCCCCCCCCCCC(=O)OC(C)C(=O)OC(C)C(=O)[O-].[Na+] (centres unmarked) [Dermosoft SLL, Sodium Lauroyl Lactylate] | 30 mmol/L |  | 
14 | Disodium Cocoamphodipropionate [Mackam 2CSF-40CG] | <10 mmol/L | provided at least some antimicrobial boosting effect | MEC of antimicrobial agent Caprylhydroxamic Acid (Zeastat) [1]: 6 mmol/L; MEC of antimicrobial agent Hydroxyacetophenone (SymSave H) [1]: 10 mmol/L; MEC of antimicrobial agent Sodium Benzoate [1]: 2.5 mmol/L
15 | Lauryl Glucoside [Plantaren 1200 N UP] | >30 mmol/L |  | MEC of antimicrobial agent Sodium Benzoate [1]: 10 mmol/L
16 | sodium cocoamphodipropionate |  | provided at least some antimicrobial boosting effect | 
17 | CCCCCCCC[N+](C)(C)[O-] [Techmine 280, Octyldimethylamine Oxide] | 40 mmol/L |  | 
18 | Sodium Lauroamphoacetate [Sopalteric SLA-32] | 20 mmol/L | provided at least some antimicrobial boosting effect | 
19 | PEG-40 Hydrogenated Castor Oil [Tagat CH40] | >60 mmol/L | did not perform well as antimicrobial boosting agents | MEC of antimicrobial agent Caprylhydroxamic Acid (Zeastat) [1]: 10 mmol/L; MEC of antimicrobial agent Hydroxyacetophenone (SymSave H) [1]: >20 mmol/L
20 | PEG-80 Sorbitan Laurate [Alkamuls PSML-80/72LD] | 50 mmol/L |  | 
21 | Sodium Cocoamphoacetate [Mackam HPC-32L] | 40 mmol/L |  | 
22 | Sodium Methyl Cocoyl Taurate [Hostapon CT Paste] |  |  | MEC of antimicrobial agent Sodium Benzoate [1]: 2.5 mmol/L
23 | Sodium Laurylglucosides Hydroxypropylsulfonate [Suga Nate 160] | >50 mmol/L |  | 
24 | Cocamidopropyl Betaine [Dehyton PK-45] |  |  | MEC of antimicrobial agent Sodium Benzoate [1]: >15 mmol/L
25 | Sodium Cocoamphopropionate [Rewoteric AM KSF 40] | <10 mmol/L |  | MEC of antimicrobial agent Caprylhydroxamic Acid (Zeastat) [1]: 4 mmol/L; MEC of antimicrobial agent Hydroxyacetophenone (SymSave H) [1]: 10 mmol/L; MEC of antimicrobial agent Sodium Benzoate [1]: 1.8 mmol/L
26 | Caprylyl/Capryl Glucoside [Plantaren 810 UP] | 60 mmol/L |  | 
27 | Disodium PEG-12 Dimethicone Sulfosuccinate [Mackanate Ultra Si] | 40 mmol/L |  | 
28 | O=C([O-])c1ccccc1.[Na+] [Sodium Benzoate] |  |  | MEC of antimicrobial agent Sodium Benzoate [2]: 7.5 mmol/L
29 | C[N+](C)(CCO)CC(O)C[N+](C)(C)CCO.[Cl-].[Cl-] [Cola Moist 200, Hydroxypropyl Bis-Hydroxyethyldimonium Chloride] | 50 mmol/L |  | 
30 | Laureth-3 Phosphate [Dermalcare MAP L-130] | 40 mmol/L |  | 
